# Laboratory results as given in patent US4492650A, “A54556 Antibiotics and process for production thereof” (Eli Lilly and Company, priority 1982, dated 1985).
# Where “and” joins values, the source holds several entries; their conditions need not be identical. Equal entries are not always repeated. Where two headings read alike, the source gives them in different places. Bridge positions count the residues as written; N and C are the ends. Square brackets hold non-standard residues; d marks the D form. Peptide text beside a SMILES is read from it. * marks the point of attachment. ξ: configuration not given here. Octatrienoyl(2E,4E,6E) = C/C=C/C=C/C=C/C(=O)*; ξPro(4ξ-Me) = CC1CNC(C(=O)O)C1; X2 = CCC/C=C/C=C/C(=O)*; NMeA = CN[CH](C)C(=O)O; X1 = O=C(/C=C/C=C/CO)*
# Key:
# [1] = system: Culture A54556; assay: Sensitivity of Culture A54556 to antibiotics, sensitivity discs on ISP medium No. 2 agar; format: cell-based, Streptomyces hawaiiensis NRRL 15010
# Procedure: The sensitivity of Culture A54556 to several antibiotics at specific concentrations was determined with sensitivity discs padded onto the surface of plates containing ISP medium No. 2 agar seeded with 2% inoculum of Culture A54556.
# [2] = system: experimental bacterial infections; assay: In vivo antimicrobial activity against experimental bacterial infections; settings: mice, subcutaneously
# Procedure: (§1) When two doses of test compound were administered subcutaneously to mice in illustrative infections, the activity is measured as an ED50 value [effective does in mg./kg. to protect fifty percent of the test animals: See Warren Wick et al., J. Bacteriol. 81, 233-235 (1961)]. The ED50 values for these antibiotic A54556 factors are recorded in Table 15, which follows.
# [3] = system: Streptococcus pyogenes (Group A) C203; settings: second test, Table 13
# [4] = system: Clostridium perfringens 81; assay: microbe, parasite or virus in culture; format: cell-based
# [5] = system: Staphylococcus aureus V41; settings: second test, Table 13, benzylpenicillin resistant
# [6] = system: Staphylococcus epidermidis EPI1; settings: second test, Table 13
# [7] = Electrometric titration; format: physicochemical; settings: 66 percent dimethylformamide in water
# Description: Antibiotic A54556 factor A is a tan, amorphous solid. […] As determined by electron impact and field desorption mass spectrometry, A54556 factor A has a molecular weight of 718.
# [8] = system: Streptococcus pneumoniae Park I; settings: second test, Table 13
# [9] = system: anaerobic bacteria; assay: Activity against anaerobic bacteria; format: cell-based; settings: agar-dilution method
# [10] = system: Eubacterium aerofaciens 1235; assay: MIC, agar-dilution method; format: cell-based; settings: Collinsella aerofaciens
# Description: (§2) Antibiotic A54556 factors A, B, C, D, E, F, G, and H have been tested and found to be active against a number of anaerobic bacteria, as recorded in Table 14, which follows, the MIC values having been determined by the agar-dilution method.
# [11] = system: Peptostreptococcus intermedius 1264; assay: MIC, agar-dilution method; format: cell-based
# Description: as §2
# [12] = system: Bacteroides melaninogenicus 2736; assay: MIC, agar-dilution method; format: cell-based
# Description: as §2
# [13] = system: Bacteroides fragilis 1877; assay: MIC, agar-dilution method; format: cell-based
# Description: as §2
# [14] = system: Bacteroides fragilis 111; assay: MIC, agar-dilution method; format: cell-based
# Description: as §2
# [15] = system: Clostridium septicum 1128; assay: MIC, agar-dilution method; format: cell-based
# Description: as §2
# [16] = system: Fusobacterium necrophorum 6054A; assay: MIC, agar-dilution method; format: cell-based
# Description: as §2
# [17] = system: Bacteroides fragilis 1936B; assay: MIC, agar-dilution method; format: cell-based
# Description: as §2
# [18] = system: Clostridium difficile 2994; assay: MIC, agar-dilution method; format: cell-based; settings: Clostridioides difficile
# Description: as §2
# [19] = system: Propionibacterium acnes 79; assay: MIC, agar-dilution method; format: cell-based; settings: Cutibacterium acnes
# Description: as §2
# [20] = system: Bacteroides thetaiotaomicron 1438; assay: MIC, agar-dilution method; format: cell-based
# Description: as §2
# [21] = system: Bacteroides melaninogenicus 1856/28; assay: MIC, agar-dilution method; format: cell-based; settings: Prevotella intermedia
# Description: as §2
# [22] = system: Peptococcus prevoti 1281; assay: MIC, agar-dilution method; format: cell-based
# [23] = system: Bacteroides corrodens 1874; assay: MIC, agar-dilution method; format: cell-based; settings: Eikenella corrodens
# [24] = system: Streptococcus sp. (Group D) X66; assay: Disc-plate sensitivity; format: cell-based; settings: second test, Table 13; for Zone diameter: listed as B; for zone of inhibition at 300 µg/disc / zone of inhibition at 30 µg/disc: Streptococcus; for zone of inhibition at 30 µg/disc: read-out: Zone diameter, 30 mcg./disc
# [25] = system: S. pyogenes; assay: In vivo protection against experimental bacterial infection in mice; settings: Streptococcus pyogenes, sc, two doses subcutaneously
# Procedure: as §1
# [26] = system: Peptococcus asaccharolyticus 1302; assay: MIC, agar-dilution method; format: cell-based; settings: Peptoniphilus asaccharolyticus
# [27] = system: Staphylococcus aureus 3055; settings: second test, Table 13, benzylpenicillin-susceptible
# [28] = system: Bacteroides vulgatis 1211; assay: MIC, agar-dilution method; format: cell-based
# [29] = system: Fusobacterium symbiosum 1470; assay: MIC, agar-dilution method; format: cell-based
# [30] = system: Peptostreptococcus anaerobius 1428; assay: MIC, agar-dilution method; format: cell-based
# [31] = read-out: Zone diameter, 300 mcg./disc
compound,measurement,setting,value
CC(=O)OCC1=C(C(=O)O)N2C(=O)[C@@H](NC(=O)Cc3cccs3)[C@H]2SC1 [Cephalothin],Antibiotic Sensitivity of Culture A54556,[1]; 30 mcg. disc,-
"O=C(N[C@H](CO)[C@H](O)c1ccc([N+](=O)[O-])cc1)C(Cl)Cl [Chloromycetin (CAP), Chloromycetin]",Antibiotic Sensitivity of Culture A54556,[1]; 30 mcg. disc,trace
CC[C@H]1OC(=O)[C@H](C)[C@@H](O[C@H]2C[C@@](C)(OC)[C@@H](O)[C@H](C)O2)[C@H](C)[C@@H](O[C@@H]2O[C@H](C)C[C@H](N(C)C)[C@H]2O)[C@](C)(O)C[C@@H](C)C(=O)[C@H](C)[C@@H](O)[C@]1(C)O [Erythromycin],Antibiotic Sensitivity of Culture A54556,[1]; 15 mcg. disc,-
"C/C=C/C=C/C=C/C(=O)NC(Cc1ccccc1)C(=O)NC1COC(=O)C2CCCN2C(=O)C(C)NC(=O)C(C)N(C)C(=O)C2CCCN2C1=O (stereo not drawn) [Factor B] ({Octatrienoyl(2E,4E,6E)}-FSP[NMeA]AP; ester 2-C; configuration not given here)",in vivo antimicrobial activity against experimental bacterial infections,[2],have shown in vivo antimicrobial activity
same,Zone diameter,"[3]; 30 mcg./disc, listed as B",18 mm. and 26 mm.
same,Zone diameter,"[3]; 300 mcg./disc, listed as B",24 mm. and 30 mm.
same,MIC,[4],16 mg/L
same,Zone diameter,[5]; 30 mcg./disc,15 mm. and 18 mm.
same,Zone diameter,[5]; 300 mcg./disc,19 mm. and 26 mm.
same,Zone diameter,"[6]; 30 mcg./disc, listed as B",13 mm. and 16 mm.
same,Zone diameter,"[6]; 300 mcg./disc, listed as B",21 mm. and 27 mm.
same,titratable groups,[7],no titratable groups
same,Zone diameter,[8]; 30 mcg./disc,25 mm.
same,Zone diameter,"[8]; 30 mcg./disc, listed as B",20 mm.
same,Zone diameter,[8]; 300 mcg./disc,32 mm.
same,Zone diameter,"[8]; 300 mcg./disc, listed as B",35 mm.
same,activity against a number of anaerobic bacteria,[9],active
same,MIC,[10],16 mg/L
same,MIC,[11],> 128 mg/L
same,MIC,[12],> 128 mg/L
same,MIC,[13],> 128 mg/L
same,MIC,[14],32 mg/L
same,MIC,[15],16 mg/L
same,MIC,[16],16 mg/L
same,MIC,[17],16 mg/L
same,MIC,[18],> 128 mg/L
same,MIC,[19],> 128 mg/L
same,MIC,[20],16 mg/L
same,MIC,[21],> 128 mg/L
same,MIC,"[22]; agar-dilution, read-out: MIC",8 mg/L
same,MIC,[23],> 128 mg/L
same,Zone diameter,[24]; 30 mcg./disc,23 mm.
same,Zone diameter,[24]; 300 mcg./disc,27 mm.
same,zone of inhibition at 300 µg/disc,"[24]; 300 mcg./disc, read-out: Zone diameter",30 mm
same,zone of inhibition at 30 µg/disc,[24],22 mm
same,ED50,[25],> 70 mg/kg
same,MIC,"[26]; agar-dilution, read-out: MIC",8 mg/L
same,Zone diameter,[27]; 30 mcg./disc,18 mm. and 20 mm.
same,Zone diameter,[27]; 300 mcg./disc,26 mm.
same,MIC,"[28]; agar-dilution, read-out: MIC",32 mg/L
same,MIC,"[29]; agar-dilution, read-out: MIC",8 mg/L
same,MIC,"[30]; agar-dilution, read-out: MIC",8 mg/L
CCC/C=C/C=C/C(=O)NC(Cc1ccccc1)C(=O)NC1COC(=O)C2CCCN2C(=O)C(C)NC(=O)C(C)N(C)C(=O)C2CC(C)CN2C1=O (stereo not drawn) [Factor D] (X2-FS[ξPro(4ξ-Me)][NMeA]AP; ester 2-C; configuration not given here),in vivo antimicrobial activity against experimental bacterial infections,[2],have shown in vivo antimicrobial activity
same,Zone diameter,[3]; 30 mcg./disc,24 mm.
same,Zone diameter,[3]; 300 mcg./disc,32 mm.
same,MIC,[4],> 128 mg/L
same,Zone diameter,[5]; 30 mcg./disc,27 mm.
same,Zone diameter,[5]; 300 mcg./disc,28 mm.
same,Zone diameter,[6]; 30 mcg./disc,25 mm.
same,Zone diameter,[6]; 300 mcg./disc,34 mm.
same,titratable groups,[7],no titratable groups
same,Zone diameter,[8]; 30 mcg./disc,30 mm.
same,Zone diameter,[8]; 300 mcg./disc,34 mm.
same,activity against a number of anaerobic bacteria,[9],active
same,MIC,[10],> 128 mg/L
same,MIC,[11],> 128 mg/L
same,MIC,[12],> 128 mg/L
same,MIC,[13],> 128 mg/L
same,MIC,[14],> 128 mg/L
same,MIC,[15],> 128 mg/L
same,MIC,[16],> 128 mg/L
same,MIC,[17],> 128 mg/L
same,MIC,[18],> 128 mg/L
same,MIC,[19],> 128 mg/L
same,MIC,[20],> 128 mg/L
same,MIC,[21],> 128 mg/L
same,MIC,[22],> 128 mg/L
same,MIC,[23],> 128 mg/L
same,zone of inhibition at 30 µg/disc,[24],26 mm
same,zone of inhibition at 300 µg/disc,[24]; [31],33 mm
same,ED50,[25],> 70 mg/kg
same,MIC,[26],128 mg/L
same,Zone diameter,[27]; 30 mcg./disc,29 mm.
same,Zone diameter,[27]; 300 mcg./disc,30 mm.
same,MIC,[28],> 128 mg/L
same,MIC,[29],> 128 mg/L
same,MIC,[30],128 mg/L
CC1CC2C(=O)N(C)C(C)C(=O)NC(C)C(=O)N3CCCC3C(=O)OCC(NC(=O)C(Cc3ccccc3)NC(=O)/C=C/C=C/CO)C(=O)N2C1 (stereo not drawn) [Factor H] (X1-FS[ξPro(4ξ-Me)][NMeA]AP; ester 2-C; configuration not given here),in vivo antimicrobial activity against experimental bacterial infections,[2],have shown in vivo antimicrobial activity
same,Zone diameter,[3]; 30 mcg./disc,30 mm.
same,Zone diameter,[3]; 300 mcg./disc,32 mm.
same,MIC,[4],> 128 mg/L
same,Zone diameter,[5]; 30 mcg./disc,10 mm.
same,Zone diameter,[5]; 300 mcg./disc,14 mm.
same,Zone diameter,[6]; 30 mcg./disc,12 mm.
same,Zone diameter,[6]; 300 mcg./disc,24 mm.
same,titratable groups,[7],no titratable groups
same,Zone diameter,[8]; 30 mcg./disc,25 mm.
same,Zone diameter,[8]; 300 mcg./disc,36 mm.
same,activity against a number of anaerobic bacteria,[9],active
same,MIC,[10],> 128 mg/L
same,MIC,[11],> 128 mg/L
same,MIC,[12],> 128 mg/L
same,MIC,[13],> 128 mg/L
same,MIC,[14],> 128 mg/L
same,MIC,[15],> 128 mg/L
same,MIC,[16],> 128 mg/L
same,MIC,[17],> 128 mg/L
same,MIC,[18],> 128 mg/L
same,MIC,[19],> 128 mg/L
same,MIC,[20],> 128 mg/L
same,MIC,[21],> 128 mg/L
same,MIC,[22],> 128 mg/L
same,MIC,[23],> 128 mg/L
same,zone of inhibition at 30 µg/disc,[24],21 mm
same,zone of inhibition at 300 µg/disc,[24]; [31],27 mm
same,ED50,[25],9.9 mg/kg
same,MIC,[26],> 128 mg/L
same,Zone diameter,[27]; 30 mcg./disc,8 mm.
same,Zone diameter,[27]; 300 mcg./disc,11 mm.
same,MIC,[28],> 128 mg/L
same,MIC,[29],> 128 mg/L
same,MIC,[30],128 mg/L
CO[C@@H]1[C@@H](OC(N)=O)[C@@H](O)[C@H](Oc2ccc3c(O)c(NC(=O)c4ccc(O)c(CC=C(C)C)c4)c(=O)oc3c2C)OC1(C)C [Novobiocin],Antibiotic Sensitivity of Culture A54556,[1]; 30 mcg. disc,+
CO[C@H]1/C=C/O[C@@]2(C)Oc3c(C)c(O)c4c(O)c(c(/C=N/N5CCN(C)CC5)c(O)c4c3C2=O)NC(=O)/C(C)=C\C=C\[C@H](C)[C@H](O)[C@@H](C)[C@@H](O)[C@@H](C)[C@H](OC(C)=O)[C@@H]1C [Rifampin],Antibiotic Sensitivity of Culture A54556,[1]; 5 mcg. disc,+
[H]/N=C(/N)N[C@H]1[C@H](O)[C@@H](O)[C@H](O[C@@H]2O[C@@H](C)[C@](O)(C=O)[C@H]2O[C@@H]2O[C@@H](CO)[C@H](O)[C@@H](O)[C@@H]2NC)[C@@H](N/C(N)=N\[H])[C@@H]1O [Streptomycin],Antibiotic Sensitivity of Culture A54556,[1]; 10 mcg. disc,+
CN(C)C1C(=O)C(C(N)=O)=C(O)C2(O)C(=O)C3=C(O)c4c(O)cccc4C(C)(O)C3CC12 (stereo not drawn) [Tetracycline],Antibiotic Sensitivity of Culture A54556,[1]; 30 mcg. disc,+
CN[C@H](CC(C)C)C(=O)N[C@H]1C(=O)N[C@@H](CC(N)=O)C(=O)N[C@H]2C(=O)N[C@H]3C(=O)N[C@H](C(=O)N[C@H](C(=O)O)c4cc(O)cc(O)c4-c4cc3ccc4O)[C@H](O)c3ccc(c(Cl)c3)Oc3cc2cc(c3O[C@@H]2O[C@H](CO)[C@@H](O)[C@H](O)[C@H]2O[C@H]2C[C@](C)(N)[C@H](O)[C@H](C)O2)Oc2ccc(cc2Cl)[C@H]1O [Vancomycin],Antibiotic Sensitivity of Culture A54556,[1]; 30 mcg. disc,+
